Results from patent US8318898B2, “Synthetic peptides for use as inhibitors of neurotransmitter secretion and as inducers of cellular relaxation” (Universite de Lausanne, priority 2005, dated 2012).

How the values were obtained:
lung fibroblasts = experiment: Stressed collagen lattice contraction assay; type: cell-based, rat; conditions: peptide 60 minutes before gel release; compared to control gels and L-9K treated gels; preliminary
Recombinant furin = Recombinant furin (Homo sapiens, UniProt P09958); experiment: biochemical; type: biochemical
Sequence of Recombinant furin (P09958 108-794): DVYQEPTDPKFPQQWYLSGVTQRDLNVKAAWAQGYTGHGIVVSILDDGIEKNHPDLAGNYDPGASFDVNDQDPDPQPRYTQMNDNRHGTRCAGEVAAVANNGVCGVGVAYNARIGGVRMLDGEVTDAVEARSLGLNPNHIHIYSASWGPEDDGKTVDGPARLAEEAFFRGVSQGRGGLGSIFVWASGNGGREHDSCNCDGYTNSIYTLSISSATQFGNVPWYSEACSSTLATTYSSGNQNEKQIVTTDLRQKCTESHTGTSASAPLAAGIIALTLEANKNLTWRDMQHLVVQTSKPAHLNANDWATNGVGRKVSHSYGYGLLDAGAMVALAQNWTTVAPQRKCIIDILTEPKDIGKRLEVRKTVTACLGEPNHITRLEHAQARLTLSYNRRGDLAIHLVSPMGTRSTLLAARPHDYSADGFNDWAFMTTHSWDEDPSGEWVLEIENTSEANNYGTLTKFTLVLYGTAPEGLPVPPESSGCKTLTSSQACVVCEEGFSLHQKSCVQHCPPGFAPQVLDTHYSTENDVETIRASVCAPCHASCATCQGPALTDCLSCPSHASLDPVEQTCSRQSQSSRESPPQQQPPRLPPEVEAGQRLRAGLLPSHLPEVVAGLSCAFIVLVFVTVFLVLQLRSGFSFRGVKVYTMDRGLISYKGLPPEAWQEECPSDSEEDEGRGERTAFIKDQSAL
Procedure: To determine if the peptides described herein have an effect on the activity of PC enzymes which are involved in a condition or disorder such as fibrosis, the effect of the peptides on furin activity in vitro was measured as percent inhibition of cleavage of the furin substrate fluorogenic t-butyloxycarbonyl (Boc)-RVRR-7-amino-4-methylcoumarin (MCA).
All in vitro enzyme studies were performed at room temperature in a final volume of 50-100 μl in 96-well flat-bottom black plates. The buffer consisted of 100 mM HEPES, 1 mM CaCl2, 0.5% TritonX-100, and 1 mM 2-β-mercaptoethanol pH 7.5. Assays were performed using Boc-RVRR-MCA as fluorogenic substrate at 100 μM. Recombinant furin (0.8 U of activity) was incubated with Boc-RVRR-MCA in the presence or absence of varying concentrations of synthetic peptides D-9Rac/am (SEQ ID NO. 15), L-Bel1 (SEQ ID NO. 3), or L-9K (SEQ ID NO. 6). One unit of activity is defined as the amount of furin that can release 1 μmol of MCA from the fluorogenic Boc-RVRR-MCA per min at 30° C. The release of highly fluorescent 7-amino 4-methyl coumarin (MCA) from the Boc-RVRR-MCA was monitored by a spectrofluorometer instrument at excitation and emission wavelengths of 370 nm/460 nm. […]

PC-12 cells = experiment: Actin cytoskeleton organization, phalloidin-TRITC staining; type: cell-based, rat
Procedure: Slides with PC-12 cells were prepared as stated previously for localization studies. Briefly, cells were exposed to FITC-labeled or unlabeled peptides, at various concentrations, for 30 minutes, fixed and then permeabilized. Subsequently, F-actin was fluorescently labeled with phalloidin-Tetramethyl Rhodamine Iso-Thiocyanate (TRITC) (Sigma Aldrich) conjugate, diluted on saponin buffer (0.25 μg/ml), and nuclear staining with DAPI dihydrochloride (Sigma Aldrich) (0.02 μg/ml), at room temperature for maximum 30 minutes. Finally, slides were mounted and sealed, and stored at 4° C. protected from light. The effect of the peptides to actin polymerization was analyzed by confocal microscopy, as described before.

PC12-ES cells = experiment: Evoked neurotransmitter secretion by undifferentiated PC12-ES cells, furin inhibitor and arginine rich peptides; type: cell-based, rat; conditions: potassium 80 mM, 15 minutes
[1] = system: smooth muscle cell line (A7r5); experiment: Cell contraction/relaxation on silicon sheet, smooth muscle cells; type: cell-based
Procedure: Lung biopsy was obtained from a Sprague Dawley rat, divided in small tissue slices, placed in culture dishes, and maintained then in organ culture in Dulbecco's modified Eagle's medium (GibcoBRL, Life Technologie) containing 10% decomplemented fetal bovine serum (FBS) supplemented with 100 U/ml penicillin, 100 μg/ml streptomycin, 4 mM I-glutamine, at 37° C., in 5% CO2. Cells were maintained during 2-3 weeks (2-8 passages), replacing medium frequently. At confluence, cells were detached from the culture dish with 0.125% trypsin-EDTA mixture (Sigma) for 10 minutes at 37° C., resuspended in complete medium, and seeded over silicon-coated tissue culture dishes at 3.5×10^3 cells/cm^2. One to two days after, cells were treated with the appropriate peptide at 10 or 50 μM, and peptide-induced cell contraction/relaxation effect followed for 1-3 hours by live videomicroscopy. A smooth muscle cell line (A7r5) kept in similar conditions was also used to follow the peptide-induced effects on these cells grown over silicon sheet.
Live videomicroscopy was performed under controlled temperature and CO2 conditions using a Zeiss Axiovert 200M (Zeiss, Oberkochem, Germany), equipped with a spinning disk Nipkow confocal head (Yokogawa CSU10), Photometrics CoolSNAP-HQ CCD camera and Metamorph 6.0 acquisition software (Visitron Systems, Puchheim, Germany). […]

For `N=C(N)NCCC[C@H](NC(=O)CNC(=O)[C@H](Cc1ccc(O)cc1)NC(=O)CN)C(=O)N[C@@H](CCCCN)C(=O)N[C@@H](CCCCN)C(=O)N[C@@H](CCCNC(=N)N)C(=O)N[C@@H](CCCNC(=N)N)C(=O)N[C@@H](CCC(N)=O)C(=O)N[C@@H](CCCNC(=N)N)C(=O)N[C@@H](CCCNC(=N)N)C(=O)N[C@@H](CCCNC(=N)N)C(=O)NCC(=O)O` [L-Tat], the “myofibroblast-mediated collagen gel contraction” value (lung fibroblasts) was “decrease”, the “concentration for complete blockade of cleavage of Boc-RVRR-MCA by furin” value (Recombinant furin) was 3.5 µM and the “inhibition of in vitro furin activity (in words)” value (Recombinant furin; Boc-RVRR-MCA 100 μM as substrate) was “inhibited to completion”. For the same compound, the Ki (Recombinant furin; furin, Boc-RVRR-MCA substrate, read-out: Ki(app)) was 370 nM, the “effect on actin content and organization at higher concentration” value (PC-12 cells; 100 μM) was “almost lost” and the “effect on actin content and organization” value (PC-12 cells; 2 to 10 μM, 30 minutes, labeled or unlabeled) was “decreased actin content and organization”. For the same compound, the “inhibition of evoked neurotransmitter secretion by PC12-ES cells” value (PC12-ES cells; 10 μM) was 24.6%, the “inhibition of evoked neurotransmitter secretion by PC12-ES cells” value (PC12-ES cells; 100 μM) was 56.4% and the “relaxing effect on smooth muscle cells” value [1] was “same effect”.
